Laboratory results published in US20110124634A1, “BIOACTIVE COMPOUNDS FOR TREATMENT OF CANCER AND NEURODEGENERATIVE DISEASES” (PONIARD PHARMACEUTICALS, INC., priority 2008, published 2011).
Where two headings read alike, the source gives them in different places.

Tests used:
Type in all cases: cell-based
[1] = tested on: HSP90 client protein Her2 in SKBR-3 cells; assay: Her-2 degradation assay (Her-2 ELISA) in SKBr-3 cells; conditions: Homo sapiens
Experimental: Most of the compounds synthesized were evaluated for their ability to induce degradation of the HSP90 client protein Her2 in SKBR-3 cells. Selected compounds were evaluated in a fluorescence polarization (FP) assay for their affinity to HSP90.
SKBr-3 cells grown in McCoy's 5a Medium supplemented with 10% fetal bovine serum (FBS) were plated into 12-well plates at 50% confluency. Increasing concentrations of inhibitors were added 24 hours later (cells are 65-70% confluent) and incubated overnight for 18 hours. The wells were washed with 2 ml of phosphate buffered saline (PBS), and 50 ul of trypsin was added to each well. After trypsinization was complete, 150 ul of FBS was added to each well. Then 200 ul of cells were transferred to 96-well plates and plates were centrifuged at 1200 rpm for 2 minutes using a tabletop centrifuge. The cells were washed once with 250 ul PBS before being lysed with 100 ul of 50 mM Tris (pH 7.4), 0.1% NP-40 lysis buffer. Protein concentrations of clarified lysates were determined using the BCA Assay (Calbiochem) according to the manufacturer's instructions. 2 ug of each lysate was analyzed in the human sp 185 Her-2 ELISA (Bender Medsystems) according to the manufacturer's instructions. ELISA plates were read at 450 nm using a multiwell plate spectrophotometer. Background was determined by measuring the Abs 450 nm of wells with no lysate added. The background value was subtracted from all values. Absorbance 450 nm values for each inhibitor were plotted against the log 10 inhibitor concentration, and IC50 values were calculated using a nonlinear least-square curve fitting program in Prism 5.

MCF-7 = assay: MTS assay (cytotoxicity), growth inhibition of MCF-7; conditions: Homo sapiens, MCF7, 120 h
Experimental: (§1) Cells were seeded in 96-well plates at 2000 cells/well in a final culture volume of 100 ul for 24 hours before the addition of 25 ul of increasing concentrations of inhibitors that was incubated for 5 days. Viable cell number was determined using the CellTiter 96 AQueous One Solution Cell Proliferation Assay (Promega). Plates were read at 490 nm absorbance 2-4 hours after addition of the MTS reagent using a multiwell plate spectrophotometer. Background was determined by measuring the Abs 490 nm of cell culture medium and MTS in the absence of cells. The background value was subtracted from all values. Absorbance 490 nm values for each inhibitor were plotted against the log 10 inhibitor concentration, and IC50 values were calculated using a nonlinear least-square curve fitting program in Prism 5.

SKBR-3 = assay: MTS assay (cytotoxicity), growth inhibition of SKBR-3; conditions: Homo sapiens, SK-BR-3, 120 h
Experimental: as §1

BT474 = assay: MTS assay (cytotoxicity), growth inhibition of BT474; conditions: Homo sapiens, BT-474, 120 h
Experimental: as §1

HT29 = assay: MTS assay (cytotoxicity), growth inhibition of HT29; conditions: Homo sapiens, HT-29, 120 h
Experimental: as §1

[2] = SK-BR-3, Table 5, series III, 18 hours
[3] = Table 5, series III, 5 days, read-out: Growth Inhibition (IC50) MCF-7
[4] = Table 5, series III, 5 days, read-out: Growth Inhibition (IC50) SKBR-3
[5] = Table 5, series III, 5 days, read-out: Growth Inhibition (IC50) BT474
[6] = Table 5, series III, 5 days, read-out: Growth Inhibition (IC50) HT29

COc1c(C)cnc(CN2C(=O)/C(=C\c3nc(NC(=O)C(C)C)c[nH]3)c3c(Cl)nc(N)nc32)c1C [III-71, (Z)-N-(2-((2-Amino-4-chloro-7-((4-methoxy-3,5-dimethylpyridin-2-yl)methyl)-6-oxo-6,7-dihydro-5H-pyrrolo[2,3-d]pyrimidin-5-ylidene)methyl)-1H-imidazol-4-yl)isobutyramide] gave an IC50 [1, 2] of 50 nM, an IC50 (MCF-7; [3]) of 370 nM and an IC50 (SKBR-3; [4]) of 30 nM. It also gave an IC50 (BT474; [5]) of 80 nM.
Molecule COc1c(C)cnc(CN2C(=O)/C(=C\c3cc(C(=O)NCCN4CCOCC4)c[nH]3)c3c(Cl)nc(N)nc32)c1C [III-16, (Z)-5-((2-Amino-4-chloro-7-((4-methoxy-3,5-dimethylpyridin-2-yl)methyl)-6-oxo-6,7-dihydro-5H-pyrrolo[2,3-d]pyrimidin-5-ylidene)methyl)-N-(2-morpholinoethyl)-1H-pyrrole-3-carboxamide] has an IC50 [1, 2] of 30 nM, an IC50 (MCF-7; [3]) of 100 nM and an IC50 (HT29; [6]) of 50 nM. It also gave an IC50 (SKBR-3; [4]) of 20 nM and an IC50 (BT474; [5]) of 10 nM.
Molecule COc1c(C)cnc(CN2CC(=O)N(CCCN3CCOCC3)c3c(Cl)nc(N)nc32)c1C [Example I-10] has an IC50 ([1]; SK-BR-3, Table 1, series I, 18 hours, means of three independent experiments) of 1550 nM, an IC50 (MCF-7; Table 4, 5 days, means of three independent experiments, read-out: MCF-7 IC50 (growth inhibition)) of 2590 nM and an IC50 (HT29; Table 4, 5 days, means of three independent experiments, read-out: HT29 IC50 (growth inhibition)) of 2950 nM. The IC50 (SKBR-3; Table 4, 5 days, means of three independent experiments, read-out: SKBR-3 IC50 (growth inhibition)) was 1110 nM and the IC50 (BT474; Table 4, 5 days, means of three independent experiments, read-out: BT474 IC50 (growth inhibition)) was 1810 nM.
COc1c(C)cnc(CN2C(=O)/C(=C\c3cc(C(=O)NCCN(CCO)CCO)c[nH]3)c3c(Cl)nc(N)nc32)c1C [III-30, (Z)-5-((2-Amino-4-chloro-7-((4-methoxy-3,5-dimethylpyridin-2-yl)methyl)-6-oxo-6,7-dihydro-5H-pyrrolo[2,3-d]pyrimidin-5-ylidene)methyl)-N-(2-(bis(2-hydroxyethyl)amino)ethyl)-1H-pyrrole-3-carboxamide] was tested, and the IC50 [1, 2] was 50 nM, the IC50 (MCF-7; [3]) was 680 nM and the IC50 (HT29; [6]) was 210 nM. It also gave an IC50 (SKBR-3; [4]) of 20 nM and an IC50 (BT474; [5]) of 70 nM.
In the case of CCN(CC)CC(=O)c1c[nH]c(/C=C2\C(=O)N(Cc3ncc(C)c(OC)c3C)c3nc(N)nc(Cl)c32)c1 [III-95, (Z)-2-Amino-4-chloro-5-((4-(2-(diethylamino)acetyl)-1H-pyrrol-2-yl)methylene)-7-((4-methoxy-3,5-dimethylpyridin-2-yl)methyl)-5H-pyrrolo[2,3-d]pyrimidin-6(7H)-one], the IC50 [1, 2] is reported as 10 nM, the IC50 (MCF-7; [3]) is reported as 710 nM and the IC50 (SKBR-3; [4]) is reported as 2 nM. The IC50 (BT474; [5]) was 20 nM.
In the case of COc1c(C)cnc(CN2C(=O)/C(=C\c3cc(C(=O)NCCN4CCC(=O)CC4)c[nH]3)c3c(Cl)nc(N)nc32)c1C [III-36, (Z)-5-((2-Amino-4-chloro-7-((4-methoxy-3,5-dimethylpyridin-2-yl)methyl)-6-oxo-6,7-dihydro-5H-pyrrolo[2,3-d]pyrimidin-5-ylidene)methyl)-N-(2-(4-oxopiperidin-1-yl)ethyl)-1H-pyrrole-3-carboxamide], the IC50 [1, 2] is reported as 8 nM, the IC50 (MCF-7; [3]) is reported as 410 nM and the IC50 (SKBR-3; [4]) is reported as 0.9 nM. For the same molecule, the IC50 (BT474; [5]) was 3 nM.
Molecule COc1c(C)cnc(CN2C(=O)/C(=C\c3[nH]c(C)c(C(=O)NCCN4CCCC4)c3C)c3c(Cl)nc(N)nc32)c1C [III-104, (Z)-5-((2-Amino-4-chloro-7-((4-methoxy-3,5-dimethylpyridin-2-yl)methyl)-6-oxo-6,7-dihydro-5H-pyrrolo[2,3-d]pyrimidin-5-ylidene)methyl)-2,4-dimethyl-N-(2-(pyrrolidin-1-yl)ethyl)-1H-pyrrole-3-carboxamide] has an IC50 [1, 2] of 10 nM, an IC50 (MCF-7; [3]) of 5880 nM and an IC50 (SKBR-3; [4]) of 10 nM. For the same molecule, the IC50 (BT474; [5]) was 190 nM.
CCN(CC)CCCNC(=O)c1c[nH]c(/C=C2\C(=O)N(Cc3ncc(C)c(OC)c3C)c3nc(N)nc(Cl)c32)c1 [III-29, (Z)-5-((2-Amino-4-chloro-7-((4-methoxy-3,5-dimethylpyridin-2-yl)methyl)-6-oxo-6,7-dihydro-5H-pyrrolo[2,3-d]pyrimidin-5-ylidene)methyl)-N-(3-(diethylamino)propyl)-1H-pyrrole-3-carboxamide] showed an IC50 [1, 2] of 70 nM, an IC50 (MCF-7; [3]) of 410 nM and an IC50 (SKBR-3; [4]) of 20 nM. For the same molecule, the IC50 (BT474; [5]) was 30 nM.
CCN(CC)CCNC(=O)c1c[nH]c(/C=C2\C(=O)N(Cc3nc(C)c(C)s3)c3nc(N)nc(Cl)c32)c1 [III-69, (Z)-5-((2-Amino-4-chloro-7-((4,5-dimethylthiazol-2-yl)methyl)-6-oxo-6,7-dihydro-5H-pyrrolo[2,3-d]pyrimidin-5-ylidene)methyl)-N-(2-(diethylamino)ethyl)-1H-pyrrole-3-carboxamide] showed an IC50 [1, 2] of 10 nM, an IC50 (MCF-7; [3]) of 770 nM and an IC50 (SKBR-3; [4]) of 10 nM. The IC50 (BT474; [5]) was 60 nM.
For COc1c(C)cnc(CN2C(=O)/C(=C\c3[nH]c(C)c(C(=O)NCCN4CCOCC4)c3C)c3c(Cl)nc(N)nc32)c1C [III-103, (Z)-5-((2-Amino-4-chloro-7-((4-methoxy-3,5-dimethylpyridin-2-yl)methyl)-6-oxo-6,7-dihydro-5H-pyrrolo[2,3-d]pyrimidin-5-ylidene)methyl)-2,4-dimethyl-N-(2-morpholinoethyl)-1H-pyrrole-3-carboxamide], the IC50 [1, 2] was 70 nM, the IC50 (MCF-7; [3]) was 810 nM and the IC50 (SKBR-3; [4]) was 40 nM. It also gave an IC50 (BT474; [5]) of 110 nM.
CCN(CC)CCCc1ccc(/C=C2\C(=O)N(Cc3ncc(C)c(OC)c3C)c3nc(N)nc(Cl)c32)[nH]1 [III-86] gave an IC50 [1, 2] of 310 nM, an IC50 (MCF-7; [3]) of 1370 nM and an IC50 (SKBR-3; [4]) of 1130 nM. The IC50 (BT474; [5]) was 760 nM.
COc1c(C)cnc(CN2C(=O)/C(=C\c3cc(C(=O)CN4CCOCC4)c[nH]3)c3c(Cl)nc(N)nc32)c1C [III-93, (Z)-2-Amino-4-chloro-7-((4-methoxy-3,5-dimethylpyridin-2-yl)methyl)-5-((4-(2-morpholinoacetyl)-1H-pyrrol-2-yl)methylene)-5H-pyrrolo[2,3-d]pyrimidin-6(7H)-one] was tested, and the IC50 [1, 2] was 20 nM, the IC50 (MCF-7; [3]) was 130 nM and the IC50 (SKBR-3; [4]) was 10 nM. The IC50 (BT474; [5]) was 60 nM.
For COc1cc(CN2CC(=O)N(CC(C)C)c3c(Cl)nc(N)nc32)c(Cl)c(OC)c1OC [Example I-36], the IC50 ([1]; SK-BR-3, Table 3, 18 hours, means of three independent experiments) was greater than 5000 nM.
Molecule Cc1nc(CN2C(=O)/C(=C\c3cc(C(=O)NCCN4CCOCC4)c[nH]3)c3c(Cl)nc(N)nc32)sc1C [III-70] has an IC50 [1, 2] of 40 nM, an IC50 (MCF-7; [3]) of 320 nM and an IC50 (SKBR-3; [4]) of 20 nM. It also gave an IC50 (BT474; [5]) of 80 nM.
With COc1c(C)cnc(CN2C(=O)/C(=C\c3[nH]c(C)c(C(=O)NCCN4CCC(O)CC4)c3C)c3c(Cl)nc(N)nc32)c1C [III-107, (Z)-5-((2-Amino-4-chloro-7-((4-methoxy-3,5-dimethylpyridin-2-yl)methyl)-6-oxo-6,7-dihydro-5H-pyrrolo[2,3-d]pyrimidin-5-ylidene)methyl)-N-(2-(4-hydroxypiperidin-1-yl)ethyl)-2,4-dimethyl-1H-pyrrole-3-carboxamide] the IC50 [1, 2] was 20 nM, the IC50 (MCF-7; [3]) was 230 nM and the IC50 (SKBR-3; [4]) was 5 nM. The IC50 (BT474; [5]) was 20 nM.
In the case of COc1c(C)cnc(CN2C(=O)/C(=C\c3[nH]c(C)c(C(=O)NCCN4CCCCC4)c3C)c3c(Cl)nc(N)nc32)c1C [III-105, (Z)-5-((2-Amino-4-chloro-7-((4-methoxy-3,5-dimethylpyridin-2-yl)methyl)-6-oxo-6,7-dihydro-5H-pyrrolo[2,3-d]pyrimidin-5-ylidene)methyl)-2,4-dimethyl-N-(2-(piperidin-1-yl)ethyl)-1H-pyrrole-3-carboxamide], the IC50 [1, 2] is reported as 70 nM, the IC50 (MCF-7; [3]) is reported as greater than 1000 nM and the IC50 (SKBR-3; [4]) is reported as 100 nM. For the same molecule, the IC50 (BT474; [5]) was 1280 nM.
With COc1c(C)cnc(CN2C(=O)/C(=C\c3[nH]c(C)c(C(=O)NCCN4CCS(=O)(=O)CC4)c3C)c3c(Cl)nc(N)nc32)c1C [III-106, 5-[2-Amino-4-chloro-7-(4-methoxy-3,5-dimethyl-pyridin-2-ylmethyl)-6-oxo-6,7-dihydro-pyrrolo[2,3-d]pyrimidin-(5Z)-ylidenemethyl]-2,4-dimethyl-1H-pyrrole-3-carboxylic acid [2-(1,1-dioxo-thiomorpholin-4-yl)-ethyl]-amide] the IC50 [1, 2] was 40 nM, the IC50 (MCF-7; [3]) was 240 nM and the IC50 (SKBR-3; [4]) was 40 nM. It also gave an IC50 (BT474; [5]) of 90 nM.
